System: A. baumanii 13305
Experiment: MIC by agar dilution (CLSI)
Format: cell-based
Experimental: In a typical study, overnight grown bacterial cultures were diluted appropriately and inoculated on the agar media containing doubling dilutions of composition or pharmaceutically active ingredients disclosed herein. Observation for growth or no growth was performed after 16-20 hours of incubation at 35±2° C. in ambient air. The overall procedure was performed as per Clinical and Laboratory Standards Institute (CLSI) recommendations (Clinical and Laboratory Standards Institute (CLSI), performance Standards for Antimicrobial Susceptibility Testing, 20th Informational Supplement, M 100-S20, Volume 30, No. 1, 2010).

CO/N=C(\C(=O)N[C@@H]1C(=O)N2C(C(=O)[O-])=C(C[N+]3(C)CCCC3)CS[C@H]12)c1csc(N)n1 [Cefepime]
MIC of cefepime in presence of Sulbactam (4 to 8 mcg/ml): 4 µg/mL
